From PMC7855844 (Bioorganic & medicinal chemistry, 2020)
Blank lines part the entries; values can stand above or below the compound they belong to.

Legend:
Mcl-1 protein = Mcl-1 protein (Homo sapiens, UniProt Q07820); test: Fluorescence polarization-based binding; conditions: for decrease in Mcl-1 inhibitory activity: compared with coumarin 33
A549 cells = test: Cytotoxicity assay by SRB method; conditions: taxol in combination with Cpd 4 vs taxol alone

Sequence of Mcl-1 protein (Q07820 whole entry): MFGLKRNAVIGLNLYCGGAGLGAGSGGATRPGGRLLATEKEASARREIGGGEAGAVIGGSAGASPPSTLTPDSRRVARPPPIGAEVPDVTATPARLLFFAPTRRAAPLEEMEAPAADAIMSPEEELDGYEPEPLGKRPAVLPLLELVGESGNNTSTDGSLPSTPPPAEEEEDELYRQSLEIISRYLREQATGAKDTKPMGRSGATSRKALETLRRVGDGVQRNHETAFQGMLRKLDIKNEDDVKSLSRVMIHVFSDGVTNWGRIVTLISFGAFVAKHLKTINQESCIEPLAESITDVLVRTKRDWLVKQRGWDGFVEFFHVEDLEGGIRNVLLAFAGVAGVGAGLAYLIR

Compound: Cc1cc(=O)oc2c(CN3CCC(O)CC3)c(O)c(O)cc12 [Cpd 15, 6,7-dihydroxy-8-((4-hydroxypiperidin-1-yl)methyl)-4-methyl-2H-chromen-2-one]
decrease of Mcl-1 inhibitory activity (Mcl-1 protein; compared with parent 1): more than 7 fold

Compound: CC(=O)O[C@H]1C(=O)[C@@]2(C)[C@H]([C@H](OC(=O)c3ccccc3)[C@]3(O)C[C@H](OC(=O)[C@H](O)[C@@H](NC(=O)c4ccccc4)c4ccccc4)C(C)=C1C3(C)C)[C@]1(OC(C)=O)CO[C@@H]1C[C@@H]2O [taxol]
decrease of IC50 value for the combination compared with taxol alone (A549 cells): more than 10 fold

The next lines start with the values.

decrease in Mcl-1 inhibitory activity (Mcl-1 protein): 6 fold
Compound: O=c1ccc2cc(O)ccc2o1 [Cpd 34, 6-hydroxycoumarin]

decrease in Mcl-1 inhibitory activity (Mcl-1 protein): little effect
Compound: O=c1ccc2ccc(O)cc2o1 [Cpd 35, 7-hydroxycoumarin]

Kd (Mcl-1 protein; read-out: Kd for binding to Mcl-1 protein, saturation experiments): 13 nM
Compound: FAM-Bid: Bid BH3 peptide of 21-residue (residues 79–99) with a 6-carboxy-fluorescein succinimidyl ester fluorescence tag [reference compound]
